{
  "source": "patent US10919889B2",
  "about": "“Chiral heterocyclic compound with hedgehog pathway antagonist activity, method and use thereof” (SUZHOU KINTOR PHARMACEUTICALS, INC., priority 2016, dated 2021)",
  "molecular_target": "T1, WT-Smo (Homo sapiens, UniProt Q99835)",
  "T1 construct": "HA; expressed in transfected cells",
  "T1 sequence (Q99835 28-787)": "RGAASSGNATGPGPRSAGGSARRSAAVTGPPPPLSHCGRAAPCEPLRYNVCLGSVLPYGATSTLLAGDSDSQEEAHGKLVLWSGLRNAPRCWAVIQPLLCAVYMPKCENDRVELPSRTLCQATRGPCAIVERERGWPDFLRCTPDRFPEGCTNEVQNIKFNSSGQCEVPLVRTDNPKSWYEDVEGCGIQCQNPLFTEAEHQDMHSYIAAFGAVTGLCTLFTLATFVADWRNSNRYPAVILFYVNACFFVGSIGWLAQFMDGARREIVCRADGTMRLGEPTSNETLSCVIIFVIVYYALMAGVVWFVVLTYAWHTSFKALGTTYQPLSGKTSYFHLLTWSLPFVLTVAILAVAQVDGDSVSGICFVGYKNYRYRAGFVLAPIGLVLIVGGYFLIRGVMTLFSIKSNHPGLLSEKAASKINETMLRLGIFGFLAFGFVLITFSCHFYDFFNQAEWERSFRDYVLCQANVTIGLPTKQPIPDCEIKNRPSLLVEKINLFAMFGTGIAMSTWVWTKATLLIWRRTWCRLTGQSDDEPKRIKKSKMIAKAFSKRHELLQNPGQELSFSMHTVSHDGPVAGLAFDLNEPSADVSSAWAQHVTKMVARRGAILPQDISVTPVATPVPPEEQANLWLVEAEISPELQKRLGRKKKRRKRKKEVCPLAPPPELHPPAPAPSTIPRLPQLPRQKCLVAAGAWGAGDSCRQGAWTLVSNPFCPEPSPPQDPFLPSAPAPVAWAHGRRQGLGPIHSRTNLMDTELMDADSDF",
  "assay": "Bodipy-Cyclopamine binding assay",
  "settings": "used in the Cheng-Prusoff equation",
  "procedure": "Bodipy-Cyclopamine binding assay is a fluorescence based assay used to analysis the binding of Smo agonists. Hek293-SMO stable clones were established by puromycin (1 ug/ml, Invitrogen) selection after transfection with SMO-HA-pLVX plasmid Hek293-SMO cells were maintained in complete culture medium (DMEM with 4 mM L-Gln, 1.5 g/L sodium bicarbonate and 4.5 g/L glucose supplemented with 100 ug/ml hygromycin and 10% FBS). The expression of SMO was validated with western blot and cell immunofluorescence. Bodipy-Cyclopamine was purchased from Toronto Research Chemicals and dissolved in methanol.\nHek293-SMO cells were plated in 96-well-plate (3340, Corning), the final cell concentration is 15,000 cells/well in 100 ul 1% serum-containing DMEM. The plates were incubated in 37 degree for additional 48 hours.\nHek293-SMO plate were washed with PBS and fixed with 4% paraformaldehyde (PFA)/PBS for 20 min at room temperature. After removing the PFA buffer, the cells were incubated with DAPI/PBS (5 ug/mL) for 10 min and followed by twice wash with PBS. […] The fluorescence images were automatically captured and analyzed by a high content fluorescence imaging system (Arrayscan VTI, Thermo). […] IC50 values were calculated with GraphPad Prism software using the sigmoidal dose-response function. The Ki was calculated following the Cheng-Prusoff equation, as Ki=IC50/[1+[bodipy-cyclopamine]/Kd)].",
  "data": [
    {"smiles": "CC1=C2CC3C(CC=C4C[C@@H](O)CCC43C)C2CCC12O[C@@H]1CC(C)CN(CCNC(=O)CCCCCNC(=O)CCC3=[N+]4C(=Cc5c(C)cc(C)n5[B-]4(F)F)C=C3)C1C2C", "note": "(stereo partly shown) [bodipy-cyclopamine]", "values": [
      {"measurement": "Kd", "result": "3.5 ± 0.8", "unit": "nM"}
    ]}
  ]
}
